These results are taken from patent US11180487B2, “Substituted cyanoindoline derivatives as NIK inhibitors” (Janssen Pharmaceutica NV, priority 2016, dated 2021).

The structures appear in SMILES notation. Where two headings read alike, the source gives them in different places.

As a reminder, the melting point is the temperature of the solid-liquid transition.

In series [1] the test system is P-IKKα levels in L363 (NIK translocated multiple myeloma) cells. Briefly: Effect of compounds on P-IKKα levels in L363 cells (Mesoscale sandwich immuno-assay), Biological Assay B. In kind it is cell-based, human. Particulars: 2 hr treatment, averaged values, read-out: Inhibition of pIKKα_L-363 (IC50 (nM)). As for the experimental part: Effect of Compounds on P-IKKα Levels in L363 (NIK Translocated Multiple Myeloma) Cells
All compounds tested were dissolved in DMSO and further dilutions were made in culture medium. Final DMSO concentration was 1% (v/v) in cell assays. The human L363 cells (ATCC) were cultured in RPMI 1640 medium supplemented with GlutaMax and 10% fetal calf serum (PAA). Cells were routinely maintained at densities of 0.2×10^6 cells per ml-1×10^6 cells per ml at 37° C. in a humidified 5% CO2 atmosphere. Cells were passaged twice a week splitting back to obtain the low density. Cells were seeded in 96 well plates (Nunc 167008) at 2×10^6 per ml media in a volume of 75 μl per well plus 25 μl 1 μg/ml recombinant human B-cell activating factor (BAFF/BLyS/TNFSF13B). Seeded cells were incubated at 37° C. in a humidified 5% CO2 atmosphere for 24 hr. Drugs and/or solvents were added (20 μl) to a final volume of 120 μl. Following 2 hr treatment plates were removed from the incubator and cell lysis was achieved by the addition of 30 μl 5× lysis buffer followed by shaking on a plate shaker at 4° C. for 10 min. At the end of this incubation lysed cells were centrifuged at 800×g for 20 min at 4° C. and the lysate was assessed for P-IKKα levels by sandwich immuno-assay carried out in anti-rabbit antibody coated Mesoscale plates. Within an experiment, the results for each treatment were the mean of 2 replicate wells. For initial screening purposes, compounds were tested using an 8 point dilution curve (serial 1:3 dilutions). For each experiment, controls (containing MG132 and BAFF but no test drug) and a blank incubation (containing MG132 and BAFF and 10 μM ADS125117, a test concentration known to give full inhibition) were run in parallel. The blank incubation value was subtracted from all control and sample values. To determine the IC50 a sigmoidal curve was fitted to the plot of % inhibition of control P-IKKα levels versus Log10 compound concentration.
Note: Compounds 237 and 238 were tested at a maximum top concentration of 823 nM.

The subject of series [2] is JJN-3 (NIK translocated) multiple myeloma cells. Briefly: Antiproliferative activity on JJN-3 multiple myeloma cells (CellTiter-Glo, 96 hr), Biological Assay C. It counts as cell-based, human. Particulars: JJN-3 (NIK translocated) cells, averaged values, read-out: JJN-3 Proliferation inhibition (IC50 (nM)). The method in brief: (§1)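 JJN-3 and KMS12-BM cells in RPMI 1640 with 10% FCS were plated at 15000–20000 cells/well and treated 96 h with a 9-point 1:3 dilution series (0.3% DMSO). Viability read by CellTiter-Glo luminescence, blank (time-zero cells) subtracted, expressed as % of untreated control; duplicate wells.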
For orientation: Cellular ATP, detected with luciferase, serves as a proxy for viable cell number.

In series [3] the test system is KMS12-BM (NIK WT) multiple myeloma cells. Briefly: Antiproliferative activity on KMS12-BM multiple myeloma cells (CellTiter-Glo, 96 hr), Biological Assay C. It counts as cell-based, human. The note with it: averaged values, read-out: KMS-12 Proliferation inhibition (IC50 (nM)). In a few lines:
as §1

The target in series [4] is recombinant human NF-kappaB-inducing kinase (NIK/MAP3K14) (Homo sapiens, UniProt Q99558). Nature of the series: Inhibition of auto-phosphorylation of recombinant human NIK/MAP3K14 activity (AlphaScreen), Biological Assay A. In kind it is biochemical. The note with it: averaged values over all measurements on all batches. In a few lines:
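GST-tagged enzyme (0.2 nM) incubated with compound and 25 μM ATP in 50 mM Tris pH 7.5, 5 mM MgCl2, 1 mM EGTA, 1 mM DTT, 0.1 mM Na3VO4, 1% DMSO, 1 h at 25 °C. Stopped with anti-phospho-IKK Ser176/180 antibody; AlphaScreen bead read, blank-subtracted, IC50 from sigmoidal fit.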

Sequence of recombinant human NF-kappaB-inducing kinase (NIK/MAP3K14) (Q99558 whole entry): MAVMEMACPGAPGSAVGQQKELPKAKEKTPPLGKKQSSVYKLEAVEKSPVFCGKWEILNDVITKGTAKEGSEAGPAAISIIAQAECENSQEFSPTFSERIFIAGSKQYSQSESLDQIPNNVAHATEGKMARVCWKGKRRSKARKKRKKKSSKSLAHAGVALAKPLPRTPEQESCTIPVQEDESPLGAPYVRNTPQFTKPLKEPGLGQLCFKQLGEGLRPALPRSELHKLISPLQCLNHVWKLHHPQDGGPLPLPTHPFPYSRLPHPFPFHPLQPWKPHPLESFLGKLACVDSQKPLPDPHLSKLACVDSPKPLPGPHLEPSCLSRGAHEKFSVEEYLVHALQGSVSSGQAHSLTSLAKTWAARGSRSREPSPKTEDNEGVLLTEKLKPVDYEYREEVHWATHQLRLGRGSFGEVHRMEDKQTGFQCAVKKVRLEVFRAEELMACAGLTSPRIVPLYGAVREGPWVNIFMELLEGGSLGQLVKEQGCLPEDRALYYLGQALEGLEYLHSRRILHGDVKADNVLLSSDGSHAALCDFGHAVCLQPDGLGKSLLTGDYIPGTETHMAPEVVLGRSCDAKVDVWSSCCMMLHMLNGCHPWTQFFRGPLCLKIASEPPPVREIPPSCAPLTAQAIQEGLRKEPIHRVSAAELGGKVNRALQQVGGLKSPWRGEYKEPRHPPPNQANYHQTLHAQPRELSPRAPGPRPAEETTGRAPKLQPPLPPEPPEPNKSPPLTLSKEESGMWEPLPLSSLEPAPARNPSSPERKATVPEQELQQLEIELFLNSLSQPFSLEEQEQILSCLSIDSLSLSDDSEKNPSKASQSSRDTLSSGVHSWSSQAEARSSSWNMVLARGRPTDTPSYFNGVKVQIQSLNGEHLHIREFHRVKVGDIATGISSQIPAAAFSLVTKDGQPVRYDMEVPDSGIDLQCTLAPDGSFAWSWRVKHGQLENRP

In turn, `Cc1ccc(C(=O)NC2CCN(C)C2)cc1Nc1nccc(-c2cc(C#N)c3c(c2)[C@@](C)(CO)CN3)n1` (mixture of isomers) [Compound 163] came in with a melting point of 150 °C. The IC50 in series [1] (Homo sapiens, L-363, 2 h) turned out to be 33.1 nM. For the same molecule, the IC50 in series [2] (Homo sapiens, JJN-3, 96 h) is 437 nM. Besides, the IC50 in series [3] (Homo sapiens, KMS-12-BM, 96 h) was greater than 10000 nM. The IC50 in series [4] stood at 3.5 nM.
`Cc1cc(F)c(C(=O)NC2CCN(C)C2)cc1Nc1nccc(-c2cc(C#N)c3c(c2)[C@@](C)(CO)CN3)n1` (single isomer, unassigned) [Compound 166] registered a melting point of 116 °C. The IC50 in series [1] (Homo sapiens, L-363, 2 h) worked out at 18.6 nM. Besides, in series [2] (Homo sapiens, JJN-3, 96 h), the IC50 turned out to be 955 nM. In addition, the IC50 in series [3] (Homo sapiens, KMS-12-BM, 96 h) is greater than 10000 nM. The IC50 in series [4] turned out to be 8.9 nM.
`Cc1cc(F)c(C(=O)NC2CCN(C)C2)cc1Nc1nccc(-c2cc(C#N)c3c(c2)[C@@](C)(CO)CN3)n1` (single isomer, unassigned) [Compound 167]: the melting point came to 239 °C. The IC50 in series [1] turned out to be 19.1 nM. Also, the IC50 in series [2] turned out to be 562 nM. In series [3], the IC50 stood at 6170 nM. Further, the IC50 in series [4] was 7.6 nM.
For `Cc1cc(F)c(C(=O)NC2CCOC2)cc1Nc1nccc(-c2cc(C#N)c3c(c2)[C@@](C)(CO)CN3)n1` (single isomer, unassigned) [Compound 168], the melting point was 246 °C. In addition, the IC50 in series [1] (Homo sapiens, L-363, 2 h) was found to be 14.5 nM. Also, in series [2] (Homo sapiens, JJN-3, 96 h), the IC50 is roughly 1410 nM. For the same molecule, in series [3] (Homo sapiens, KMS-12-BM, 96 h), the IC50 was greater than 10000 nM. Also, the IC50 in series [4] came out at 10.7 nM.
`COCCOc1ccc(P(C)(C)=O)cc1Nc1nccc(-c2cc(C#N)c3c(c2)[C@@](C)(CO)CN3)n1` [Compound 5] displayed a melting point of 115 °C. For the same molecule, in series [1] (Homo sapiens, L-363, 2 h), the IC50 is greater than 10000 nM. Also, in series [4], the IC50 is 2510 nM.
On to `C[C@]1(CO)CNc2c(C#N)cc(-c3ccnc(Nc4cc(P(C)(C)=O)ccc4OCC4CC4)n3)cc21` [Compound 6], for which the melting point stood at 148 °C. In series [1] (Homo sapiens, L-363, 2 h), the IC50 was greater than 10000 nM. For the same molecule, the IC50 in series [4] was found to be 447 nM.
The corresponding values for `Cc1ccc(C#N)cc1Nc1nccc(-c2cc(C#N)c3c(c2)[C@@](C)(C(C)(C)O)CN3)n1` [Compound 135] are 166 °C, 4370 nM and 58.9 nM.
Turning to `Cc1ccc(C(C)(C)O)cc1Nc1nccc(-c2cc(C#N)c3c(c2)[C@@](C)(CO)CN3)n1` [Compound 151], the melting point is 122 °C. In addition, in series [1] (Homo sapiens, L-363, 2 h), the IC50 is 427 nM. Also, in series [4], the IC50 amounted to 22.4 nM.
Molecule `Cc1ccc(C(=O)N2CCN(C)CC2)cc1Nc1nccc(-c2cc(C#N)c3c(c2)[C@@](C)(CO)CN3)n1` [Compound 161] registered a melting point of 245 °C. The IC50 in series [1] (Homo sapiens, L-363, 2 h) is 407 nM. For the same molecule, the IC50 in series [4] is 20.4 nM.
Consider `Cc1ccc(C#N)cc1Nc1nccc(-c2cc(C#N)c3c(c2)[C@@](C)(CF)CN3)n1` [Compound 164], for which the melting point was determined as 194 °C. Also, the IC50 in series [1] (Homo sapiens, L-363, 2 h) turned out to be 288 nM. Moreover, in series [4], the IC50 came to 26.9 nM.
The corresponding values for `C[C@]1(CO)CNc2c(C#N)cc(-c3ccnc(Nc4cc(C#N)ccc4OCCCN)n3)cc21` [Compound 180] are 194 °C, 44.7 nM and 3.7 nM.
`CC(=O)NCCCCc1ccc(C#N)cc1Nc1nccc(-c2cc(C#N)c3c(c2)[C@@](C)(CO)CN3)n1` [Compound 185] displayed a melting point of 156 °C. The IC50 in series [1] (Homo sapiens, L-363, 2 h) was determined as 6.6 nM. For the same molecule, the IC50 in series [4] is 6.5 nM.
Turning to `Cc1ccc(-c2cncn2C)cc1Nc1nccc(-c2cc(C#N)c3c(c2)[C@@](C)(CO)CN3)n1` [Compound 189], the melting point amounted to 239 °C. Besides, the IC50 in series [1] (Homo sapiens, L-363, 2 h) was 1620 nM. Besides, in series [4], the IC50 came to 30.9 nM.
As to `Cc1ccc(-c2ccnn2C)cc1Nc1nccc(-c2cc(C#N)c3c(c2)[C@@](C)(CO)CN3)n1` [Compound 190], the melting point was 128 °C. Further, in series [1] (Homo sapiens, L-363, 2 h), the IC50 came out at 2630 nM. Also, the IC50 in series [4] turned out to be 34.7 nM.
Molecule `Cc1ccc(-c2ncc[nH]2)cc1Nc1nccc(-c2cc(C#N)c3c(c2)[C@@](C)(CO)CN3)n1.Cl` [Compound 191] registered a melting point of 122 °C. Moreover, in series [1] (Homo sapiens, L-363, 2 h), the IC50 was found to be 4070 nM. Besides, the IC50 in series [4] came to 13.8 nM.
Regarding `Cc1c(Nc2nccc(-c3cc(C#N)c4c(c3)[C@@](C)(CO)CN4)n2)cc(C#N)cc1C(=O)O` [Compound 201], the melting point amounted to 220 °C. Besides, in series [1] (Homo sapiens, L-363, 2 h), the IC50 is roughly 1200 nM. Also, the IC50 in series [4] was 2.8 nM.
The corresponding values for `CC(=O)NC[C@@]1(C)CNc2c(C#N)cc(-c3ccnc(Nc4cc(C#N)ccc4C)n3)cc21` [Compound 211] are 160 °C, 3160 nM and 16.2 nM.
The corresponding values for `Cc1ccc(C#N)cc1Nc1nccc(-c2cc(C#N)c3c(c2)[C@@](C)(CNS(C)(=O)=O)CN3)n1` [Compound 212] are 168 °C, roughly 4470 nM and 25.1 nM.
Take `Cc1ccc(CN2CCCC2)cc1Nc1nccc(-c2cc(C#N)c3c(c2)[C@@](C)(CO)CN3)n1` [Compound 216]: the melting point came out at 108 °C. In addition, the IC50 in series [1] (Homo sapiens, L-363, 2 h) was 144 nM. Besides, the IC50 in series [4] was determined as 49 nM.
In turn, `Cc1ccc(CNC2CC2)cc1Nc1nccc(-c2cc(C#N)c3c(c2)[C@@](C)(CO)CN3)n1` [Compound 218] gave a melting point of 115 °C. Moreover, in series [1] (Homo sapiens, L-363, 2 h), the IC50 is roughly 1230 nM. In series [4], the IC50 worked out at 3.6 nM.
`Cc1ccc(CN2CC(F)(F)C2)cc1Nc1nccc(-c2cc(C#N)c3c(c2)[C@@](C)(CO)CN3)n1` [Compound 219]: the melting point stood at 181 °C. Moreover, the IC50 in series [1] (Homo sapiens, L-363, 2 h) is 5500 nM. Further, in series [4], the IC50 was 15.5 nM.
Take `Cc1ccc(CN2CCC(O)CC2)c(Nc2nccc(-c3cc(C#N)c4c(c3)[C@@](C)(CO)CN4)n2)c1` [Compound 221]: the melting point is 181 °C. The IC50 in series [1] (Homo sapiens, L-363, 2 h) amounted to 646 nM. The IC50 in series [4] was determined as 32.4 nM.
For the molecule `CN1CCC(Oc2ccc(C#N)cc2Nc2nccc(-c3cc(C#N)c4c(c3)[C@@](C)(CO)CN4)n2)C(F)C1` (stereo partly drawn) [Compound 231], the IC50 in series [1] was 12.3 nM; in series [2] it was 89 nM; in series [3], greater than 10000 nM; in series [4] it was 7.8 nM.
As for `CN1CC(F)C(Oc2ccc(C#N)cc2Nc2nccc(-c3cc(C#N)c4c(c3)[C@@](C)(CO)CN4)n2)C1` (stereo partly drawn) [Compound 232], the IC50 is 11.5 nM in series [1] (Homo sapiens, L-363, 2 h); 282 nM in series [2]; greater than 10000 nM in series [3] (Homo sapiens, KMS-12-BM, 96 h); 5.5 nM in series [4].
For the molecule `CN1CC(F)C(Oc2ccc(C#N)cc2Nc2nccc(-c3cc(C#N)c4c(c3)[C@@](C)(CO)CN4)n2)C1` (stereo partly drawn) [Compound 233], the IC50 in series [1] is 21.4 nM; in series [2], 741 nM; in series [3], greater than 10000 nM; in series [4], 4.6 nM.
Molecule `Cc1ccc(OC2CCN(C)CC2)c(Nc2nccc(-c3cc(C#N)c4c(c3)[C@@](C)(CO)CN4)n2)c1` [Compound 234] had a melting point of 192 °C. Also, the IC50 in series [1] (Homo sapiens, L-363, 2 h) stood at 5.9 nM. The IC50 in series [2] (Homo sapiens, JJN-3, 96 h) was found to be 20 nM. Further, the IC50 in series [4] came out at 3.5 nM.
Turning to `CNCc1ccc(C)c(Nc2nccc(-c3cc(C#N)c4c(c3)[C@@](C)(CO)CN4)n2)c1` [Compound 239], the melting point is 116 °C. The IC50 in series [1] (Homo sapiens, L-363, 2 h) is 355 nM. Besides, the IC50 in series [4] turned out to be 13.8 nM.
